How the values were obtained:
[1] = tested on: P. aeruginosa strain (ATCC 9027); test: Protocol 1 kill curve / MIC, 1 hour at 37° C.; type: cell-based, Pseudomonas aeruginosa; conditions: 6.25 μg/ml, 10 mM sodium phosphate buffer
Description: This protocol is used to develop dose-response (kill) curves to calculate the minimal inhibitory concentration of an indolicidin (e.g., L-indolicidin (L-IND)) when formulated in a commercially available phosphate buffered saline (PBS) solution. In addition, for comparative purposes, kill curves are established for the following three commonly available commercial lens-care products containing different preservatives:
The stock solutions are diluted in a 2-fold fashion by transferring 1 ml of each stock solution to 1 ml of appropriate diluent in sterile glass tubes (100×13 mm). Twelve additional 2-fold dilutions are made by transferring 1 ml aliquots of each dilution to 1 ml diluent. The diluent for all commercial lens-care products is PBS. […]
Viable counts of the bacteria are performed by 10-fold serial dilutions in sterile PBS and by plating 0.1 ml aliquots on nutrient agar plates. […] The plates are incubated overnight at 37° C. and colonies are counted and recorded. […]
Survival is expressed as number of surviving bacteria (CFU/ml) for each dilution of the test article and control solutions. The lowest dose of the test article that results in complete kill of the test organism, compared to the non-exposed control, is determined to be the MIC value. […]

S. aureus ATCC 6538 = test: Protocol 3 time-dependent antimicrobial activity at one dose level; type: cell-based, Staphylococcus aureus; conditions: 50 μg/ml, 10 mM sodium phosphate buffer pH 7.4, 1, 2, 5 and 15 minutes, room temperature
Description: The objective of this protocol is to establish a procedure for determining the antimicrobial activity of indolicidin (e.g., L-IND) at 50 μg/ml over an extended exposure time up to 24 hours at room temperature. It is believed that this procedure more closely mimics the recommended use of lens-care products.
Exposure of the test organism to indolicidin occurs in a buffered solution for up to 24 hours with sampling for viability at different time intervals. Polypropylene 96-well microtiter plates and microcentrifuge tubes are used for exposure and dilution of indolicidin, respectively.
The following materials are used: sterile glass tubes containing 5 ml of Mueller-Hinton Broth (MHB), Mueller-Hinton agar plates, sterile 96-well polypropylene microtiter plates, and sterile polypropylene microcentrifuge tubes.
One or more of the following microorganisms are used in assays using this protocol or modification of this protocol: Pseudomonas aeruginosa (ATCC 9027), Pseudomonas aeruginosa (ATCC 27853), and S. aureus (ATCC 6538).
Five 5 ml of MHB tubes are innoculated with the tester strain(s) from MHA plates and grown overnight at 37° C. on a shaker (180 rpm). […]
Survival is determined by counting the colonies appearing on plates after overnight incubation at 37° C. The results are expressed as CFU/ml and survival is expressed as the percent of the bacteria that survived the treatment. […]

For `CC[C@H](C)[C@H](N)C(=O)N[C@@H](CC(C)C)C(=O)N1CCC[C@H]1C(=O)N[C@@H](Cc1c[nH]c2ccccc12)C(=O)N[C@@H](CCCCN)C(=O)N[C@@H](Cc1c[nH]c2ccccc12)C(=O)N1CCC[C@H]1C(=O)N[C@@H](Cc1c[nH]c2ccccc12)C(=O)N[C@@H](Cc1c[nH]c2ccccc12)C(=O)N1CCC[C@H]1C(=O)N[C@@H](Cc1c[nH]c2ccccc12)C(=O)N[C@@H](CCCNC(=N)N)C(=O)N[C@@H](CCCNC(=N)N)C(N)=O` [L-indolicidin, H2N-ILPWKWPWWPWRR-CONH2], the survival [1] was 59% and the survival (S. aureus ATCC 6538) was “no survival”.

— patent publication US6482799B1, “Self-preserving multipurpose ophthalmic solutions incorporating a polypeptide antimicrobial” (The Regents of the University of California, priority 1999, dated 2002)
